Measurements taken from BindingDB's records for patent US9695132 (Celgene CAR LLC, 2017).

Assays:
[1] = biological target: T1, Fibroblast growth factor receptor 4 (Homo sapiens, UniProt P22455); experiment: Omnia Assay; settings: pH 7.5
Procedure: Omnia Assay Protocol for Potency Assessment Against FGFR 4 Enzyme. a) [FGFR4-WT]=10 nM, [ATP]=300 uM, [Y10-Sox]=10 uM (ATP KMapp 300 uM): A 10x stock solution of FGFR4-WT (PR4380C), (from Invitrogen, Carlsbad, Calif.) corresponding to method a in Table 7, was prepared as described below. Alternatively, a 10x stock solution of FGFR4-WT (F01-11G), (SignalChem, Richmond, BC) corresponding to method b in Table 7, was prepared as described below. A solution of 1.4xATP (AS001A) and 5x Tyr-Sox conjugated peptide substrate (KNZ3101) were prepared in 1x kinase reaction buffer consisting of 20 mM Tris, pH 7.5, 5 mM MgCl2, 1 mM EGTA, 5 mM β-glycerophosphate, 5% glycerol (10x stock, KB002A) and 0.2 mM DTT (DS001A). […] The serially diluted compounds were prepared on a Tecan EVO100. A second addition of 10 ul of Tyr-Sox FGFR4 substrate was added to each well and the kinase reactions were started with the addition of 35 uL of 1.4xATP. The reactions were monitored every 71 seconds for 240 minutes at λex360/λem485 in a Synergy plate reader from BioTek (Winooski, Vt.).

[2] = biological target: T1, Fibroblast growth factor receptor 4; experiment: Omnia Assay; settings: pH 7.5; remark: listed apart in the source

T1 sequence (P22455 whole entry): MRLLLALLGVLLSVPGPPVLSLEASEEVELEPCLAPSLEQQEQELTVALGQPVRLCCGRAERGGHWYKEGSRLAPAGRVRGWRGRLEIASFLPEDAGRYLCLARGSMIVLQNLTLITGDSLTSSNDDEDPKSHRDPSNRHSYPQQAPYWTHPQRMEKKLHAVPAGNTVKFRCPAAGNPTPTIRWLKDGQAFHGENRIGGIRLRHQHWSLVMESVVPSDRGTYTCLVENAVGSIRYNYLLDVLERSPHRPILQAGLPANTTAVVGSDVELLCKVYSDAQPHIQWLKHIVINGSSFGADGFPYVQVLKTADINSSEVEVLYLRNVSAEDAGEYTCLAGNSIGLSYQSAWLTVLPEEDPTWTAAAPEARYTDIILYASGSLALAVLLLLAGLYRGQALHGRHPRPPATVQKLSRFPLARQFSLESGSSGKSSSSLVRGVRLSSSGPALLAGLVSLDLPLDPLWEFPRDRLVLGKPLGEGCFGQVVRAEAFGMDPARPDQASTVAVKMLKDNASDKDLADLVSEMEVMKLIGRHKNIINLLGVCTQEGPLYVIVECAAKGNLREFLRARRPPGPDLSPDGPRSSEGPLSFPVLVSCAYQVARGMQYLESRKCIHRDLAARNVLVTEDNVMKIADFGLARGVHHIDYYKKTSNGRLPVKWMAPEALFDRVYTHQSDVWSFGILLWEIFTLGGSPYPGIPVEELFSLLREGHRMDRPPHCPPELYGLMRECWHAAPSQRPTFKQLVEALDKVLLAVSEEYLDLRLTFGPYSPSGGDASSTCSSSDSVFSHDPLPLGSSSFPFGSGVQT

Compound | IC50 [1] [nM] | IC50 [2] [nM]
C=CC(=O)Nc1cc(N2CCC(C(=O)OC(C)(C)C)CC2)ccc1Nc1ncc2c(n1)N(C)C(=O)N(c1c(Cl)c(OC)cc(OC)c1Cl)C2 [US9695132, I-62] | < 100 | –
C=CC(=O)NC1COCC1Nc1ncc2c(n1)N(Cc1c[nH]cn1)C(=O)N(c1c(Cl)c(OC)cc(OC)c1Cl)C2 (centres undefined) [US9695132, I-214] | < 100 | –
C=CC(=O)Nc1cccc(Nc2ncc3c(n2)N(Cc2cccc(NC(=O)CC)c2)C(=O)C(c2c(Cl)c(OC)cc(OC)c2Cl)C3)c1 (centres undefined) [US9695132, I-232] | – | < 100
C=CC(=O)Nc1ccc(Nc2ncc3c(n2)N(Cc2cccc(NC(=O)CC)c2)C(=O)C(c2c(Cl)c(OC)cc(OC)c2Cl)C3)cc1 (centres undefined) [US9695132, I-233] | – | < 100
